# Test: in vitro
# Details: human, hela cells, % viability
row,Compound,"viability at 28.5 h, 10 µM [%]"
1,O=C(Oc1ccc(Cl)cc1)c1cc(S(=O)(=O)N2CCOCC2)ccc1Cl [CBK261670],99.6
2,NNC(=O)COc1ccc(Cl)cc1Cl [CBK261671],92.6
3,CCN(CC)Cn1nc(Nc2ccccc2)n(-c2ccccc2)c1=S [CBK261672],87.6
4,CCOc1ccccc1/C=N/Nc1ccccc1[N+](=O)[O-] [CBK261673],94.7
5,CCOC(=O)Cc1nc2ccccc2[nH]1 [CBK261674],102
6,NC(=O)c1ccccc1/N=C/c1ccc([N+](=O)[O-])o1 [CBK261675],105
7,Cc1cccc(C(=O)NNC(=O)c2cccc(Cl)c2)c1 [CBK261676],107
8,NC(=O)c1cccc(NC(=O)/C=C/C(=O)O)c1 [CBK261678],96.8
9,C(=N\c1ccc(-c2nc3ccc(/N=C/c4ccncc4)cc3[nH]2)cc1)/c1ccncc1 [CBK261681],89.8
10,O=C1N/C(=N/N=C/c2ccc(O)cc2)SC1Cc1ccccc1[N+](=O)[O-] (stereo not drawn) [CBK261684],91.9
11,O=C(O)C1CCCCN1Cc1ccccc1 (stereo not drawn) [CBK261687],94.9
12,O=C(N/N=C/c1cc(Br)c(Br)o1)c1cccc(F)c1 [CBK261688],94.2
13,Cc1c(C(c2ccc(C(=O)O)cc2)c2c(C)n(C)n(-c3ccccc3)c2=O)c(=O)n(-c2ccccc2)n1C [CBK261691],102
14,Cc1c(C(c2ccc3ccccc3c2)c2c(C)n(C)n(-c3ccccc3)c2=O)c(=O)n(-c2ccccc2)n1C [CBK261692],95.9
15,O=C(COc1ccc(Cl)cc1)NNC(=O)Cc1cccc2ccccc12 [CBK261693],91.4
16,COc1ccc(C(=O)NNC(=O)/C=C/c2ccc(C(C)C)cc2)cc1 [CBK261697],101
17,COc1ccccc1CNS(=O)(=O)c1ccccc1[N+](=O)[O-] [CBK261699],102
18,CC(C)(C)c1ccc(C(=O)NNC(=O)C(=O)Nc2ccccc2)cc1 [CBK261701],83.1
19,O=C(O)c1c(Br)c(Br)c(Br)c(Br)c1C(=O)NCCc1ccccc1 [CBK261702],90.7
20,COc1ccc(C(=O)NNC(=O)c2cccc(Cl)c2)cc1OC [CBK261704],91.4
21,O=C(O)C1CCCCC1C(=O)NCCc1ccccc1 (stereo not drawn) [CBK261707],94
22,O=C(O)CCCC(=O)NCc1cccnc1 [CBK261708],106

row,Compound,"viability at 28.5 h, 10 µM [%]"
1,O=C(NNc1ccc([N+](=O)[O-])cc1)c1cccs1 [CBK261709],92.1
2,Brc1ccc(-c2nc(NCCCN3CCOCC3)cc(-c3ccccc3)n2)cc1 [CBK261712],90.1
3,Oc1cc(-c2ccccc2)nc(NNc2ccccc2)n1 [CBK261716],96.6
4,O=C1CC(c2ccccc2)=NN1c1nc(-c2ccccc2)cc(-c2ccc(F)cc2)n1 [CBK261717],92.4
5,Cc1ccc(O)c(NC(=O)Cn2nc([N+](=O)[O-])c(Br)c2C)c1 [CBK261718],92.2
6,Cc1c(Cl)c([N+](=O)[O-])nn1CC(=O)N1CCN(C)CC1 [CBK261719],89.4
7,CC1CCCCN1S(=O)(=O)c1cccc2nonc12 (stereo not drawn) [CBK261723],94.5
8,CCOc1ccc(C(=O)NCCC(=O)O)cc1 [CBK261725D],92.2
9,O=S(=O)(c1ccc(Oc2ccc(S(=O)(=O)N3CCCCCC3)cc2)cc1)N1CCCCCC1 [CBK261729],99
10,COc1cc(CN2CCCCC2CO)c([N+](=O)[O-])cc1OC (stereo not drawn) [CBK261730],85.1
11,COc1cc(CN(C)CCc2ccccn2)c([N+](=O)[O-])cc1OC [CBK261737G],88.3
12,Cc1cc(I)ccc1NCC(=O)NN [CBK261738],91.1
13,O=C(NCCCn1ccnc1)c1cccs1 [CBK261740],90.2
14,COc1ccccc1CN(C)CCc1ccccn1 [CBK261741G],87.2
15,COc1ccc(C(=O)O)cc1S(=O)(=O)N1CCCCCC1 [CBK261742],99.2
16,CN(C1CCCCC1)S(=O)(=O)c1cc(Cl)ccc1Cl [CBK261744],118
17,COc1ccc(NC(=O)CSc2nc(O)cc(=O)[nH]2)cc1 [CBK261747],88.8
18,CC(=O)c1ccc(N2CCN(Cc3cc(C(C)(C)C)c(O)c(C(C)(C)C)c3)CC2)cc1 [CBK261749],87.2
19,[O-][S+](CC(O)COc1ccc(Cl)cc1)c1ccccn1 (stereo not drawn) [CBK261750],99.9
20,O=[N+]([O-])c1ccccc1S(=O)(=O)NCc1ccccn1 [CBK261751],92.6
21,O=[N+]([O-])c1ccc(/C=N/C23CN4CN(CN(C4)C2)C3)s1 [CBK261752],105
22,O=C(c1ccc(-c2ccccc2)cc1)c1no[n+]([O-])c1C(=O)c1ccc(-c2ccccc2)cc1 [CBK261754],106

row,Compound,"viability at 28.5 h, 10 µM [%]"
1,CC(=O)Nc1c(Nc2ccccc2)c2ccccc2oc1=O [CBK261756],88.1
2,O=S(=O)(NCCN1CCOCC1)c1cc(Cl)ccc1Cl [CBK261757],85.1
3,CC(C)OCC(O)C[S+]([O-])Cc1ccccc1 (stereo not drawn) [CBK261761],93.4
4,NNC(=O)c1cc(-c2ccccc2)nc2ccc(Br)cc12 [CBK261762],102
5,Cc1cc(C)nc(SCCN2CCOCC2)n1 [CBK261769C],93.8
6,Cc1cc(/C=N/O)c(C)c(COCc2cc(C)cc(/C=N/O)c2C)c1 [CBK261770],91.2
7,COc1ccc(Oc2cc(Cl)nc(N)n2)cc1 [CBK261771],101
8,CC(C)(C)c1ccc(OCC(O)CSc2nnc[nH]2)cc1 (stereo not drawn) [CBK261776],103
9,c1ccc(Oc2cccc(OCCCN3CCCCC3)c2)cc1 [CBK261781],95.2
10,Brc1ccc(OCCCCCCN2CCCCC2)cc1 [CBK261784],97
11,O=C(O)/C=C/C(=O)NNC(=O)c1ccccc1Br [CBK261786],111
12,CC1=NN(c2ccc([N+](=O)[O-])cc2)C(=O)/C1=C\NCCN1CCN(C(=O)c2ccc(Br)cc2)CC1 [CBK261788],110
13,O=C(O)CC(C(=O)O)N1C(=O)/C(=C2/C(=O)Nc3ccc(Br)cc32)SC1=S (stereo not drawn) [CBK261791],104
14,CC(=O)Oc1cccc(NC(=O)CC2Sc3ccccc3NC2=O)c1 (stereo not drawn) [CBK261792],92
15,O=C(/C=C/c1ccccc1Cl)NCCc1ccccc1 [CBK261794],97.5
16,NNc1nc(-c2ccccc2)cc(-c2ccc(Br)cc2)n1 [CBK261795],107
17,O=[N+]([O-])c1ccc(S(=O)(=O)NCCc2nc3ccccc3[nH]2)cc1 [CBK261796],112
18,COc1ccc(-c2csc(Nc3ccc(S(=O)(=O)Nc4cc(C)on4)cc3)n2)cc1OC [CBK261797B],95.3
19,COc1ccc(/C=N\N(C)c2nc(-c3ccccc3)cc(-c3ccc(Br)cc3)n2)cc1OC [CBK261799],104
20,O=C(NCCc1nc2ccccc2[nH]1)Nc1ccccc1 [CBK261803],103
21,O=C(/C=C/c1ccccc1)NC(NCc1cccnc1)C(Cl)(Cl)Cl (stereo not drawn) [CBK261804],95.3
22,COc1cccc(OCCCCCc2c(C)n[nH]c2C)c1 [CBK261805],104

row,Compound,"viability at 28.5 h, 10 µM [%]"
1,c1ccc2[nH]c(CCc3nc4ccccc4[nH]3)nc2c1 [CBK261807],111
2,Cc1cc(SCC(C)C)n2ncnc2n1 [CBK261808],112
3,O=C(O)C/N=C1/CCCc2ccccc2N1 [CBK261809],90.7
4,CC(=O)N(Cc1ccccc1)C1CCCc2c1[nH]c1ccc(C)cc21 (stereo not drawn) [CBK261810],98
5,O=C(O)c1ccc(-c2ccc(/C=c3\sc4nc5ccccc5n4c3=O)o2)cc1 [CBK261817],99.3
6,O=C1NC(=S)N/C1=C/c1cc2c(cc1Cl)OCO2 [CBK261818],91.5
7,O=C1CSC(=O)N1CNc1ccc(Br)cc1 [CBK261819],90.2
8,C=CCc1ccc(OCC(=O)NN)c(OC)c1 [CBK261831],97.5
9,CCOC1C(OCC)N(S(=O)(=O)c2ccc(C)cc2)CCN1S(=O)(=O)c1ccc(C)cc1 (stereo not drawn) [CBK261832],116
10,CC(C)(CO)NC(=O)COc1ccc(Cl)cc1 [CBK261833],103
11,CC(NS(=O)(=O)c1ccc([N+](=O)[O-])cc1)C(=O)O (stereo not drawn) [CBK261834],90.5
12,O=[N+]([O-])c1cc(C(F)(F)F)ccc1NC(CO)(CO)CO [CBK261838],88.4
13,Cc1nonc1NC(=O)CN1CCCCC1 [CBK261839],110
14,Cc1nonc1NC(=O)CN1CCCC1 [CBK261840],109
15,COc1cc(/C=N/c2ccc(/N=C/c3cc(Br)c(O)c(OC)c3)cc2)cc(Br)c1O [CBK261843],82.7
16,O=C(O)/C(O)=C/C(=O)c1ccc(F)cc1 [CBK261844],89.4
17,COc1ccc(O)c(CN(C)CCN(C)C)c1 [CBK261854],89.4
18,COc1ccc(CCN(C)Cc2ccncc2)cc1OC [CBK261861],98.4
19,O=[N+]([O-])c1ccccc1/C=C/CN1CCN(C/C=C/c2ccccc2)CC1 [CBK261864],93
20,CN(C)CCN(Cc1ccccc1)Cc1c(F)cccc1Cl [CBK261867],112
21,CCOC(=O)N1CCN(Cc2ccc(O)c(OC)c2)CC1 [CBK261873],98.5
22,CC(CCN1CCN(CCO)CC1)c1ccccc1 (stereo not drawn) [CBK261876],102

# Same assay, conditions: human, hela cells, % viability, bulk resorufin, single well
row,Compound,"viability at 28.5 h, 10 µM [%]"
1,O=C(NN=C1CCCCC1)C(O)(c1ccccc1)c1ccccc1 [CBK261783],91.1
2,Cc1ccc(OP(=O)(NCCN2CCOCC2)Oc2ccc(C)cc2)cc1 [CBK261802],107
3,CN(C)CCCN/C=C1/C(=O)NC(=S)N(c2ccc(Cl)cc2)C1=O [CBK261828],91.6
4,Cc1ccccc1N1C(=O)NC(=O)/C(=C/NCCCn2ccnc2)C1=O [CBK261829],107
5,CCN(CC)CCN(C)Cc1ccc2ccc3cccc4ccc1c2c34 [CBK261859],103

# Source: paper PMC12040169 (PLOS Biology, 2025)
